The supplement of paper PMC10307832

Legend:
Test in all cases: relative viability (nuclei count vs DMSO), 5 days (fraction); higher = more cells survive
[1] = compound: CN1CCN(c2ccc3nc(-c4c(N)c5c(F)cccc5[nH]c4=O)[nH]c3c2)CC1 [Dovitinib] + CS(=O)(=O)CCNCc1ccc(-c2ccc3ncnc(Nc4ccc(OCc5cccc(F)c5)c(Cl)c4)c3c2)o1 [Lapatinib] (partner 2 µM)
How it was run: (§1)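 Values are medians from duplicate plates. Each reflects relative viability, defined as the nuclei count of treated wells over that of vehicle wells. Lung cancer cell lines in 1536-well plates were pin-tool dosed one day after seeding with one drug alone or with a fixed anchor-drug dose plus five library-drug doses (not always all listed) in √10 steps, then fixed, stained and imaged at 4× after 5 days.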

[2] = compound: CN1CCN(c2ccc3nc(-c4c(N)c5c(F)cccc5[nH]c4=O)[nH]c3c2)CC1 [Dovitinib] + NC(=O)Nc1cc(-c2cccc(F)c2)sc1C(=O)N[C@H]1CCCNC1 [AZD7762] (partner 0.2 µM)
How it was run: as §1

[3] = compound: CN1CCN(c2ccc3nc(-c4c(N)c5c(F)cccc5[nH]c4=O)[nH]c3c2)CC1 [Dovitinib] + Nc1ncn([C@H]2C[C@H](O)[C@@H](CO)O2)c(=O)n1 [Decitabine] (partner 2 µM)
How it was run: as §1

[4] = compound: CN1CCN(c2ccc3nc(-c4c(N)c5c(F)cccc5[nH]c4=O)[nH]c3c2)CC1 [Dovitinib] + O=C(c1cc(Cc2n[nH]c(=O)c3ccccc23)ccc1F)N1CCN(C(=O)C2CC2)CC1 [Olaparib] (partner 8 µM)
How it was run: as §1

Cell Line | relative viability ([1]; first compound 0.02 µM) | relative viability ([1]; first compound 0.06325 µM) | relative viability ([1]; first compound 0.2 µM) | relative viability ([1]; first compound 0.6325 µM) | relative viability ([1]; first compound 2 µM) | relative viability ([2]; first compound 0.02 µM) | relative viability ([2]; first compound 0.06325 µM) | relative viability ([2]; first compound 0.2 µM) | relative viability ([2]; first compound 0.6325 µM) | relative viability ([2]; first compound 2 µM) | relative viability ([3]; first compound 0.02 µM) | relative viability ([3]; first compound 0.06325 µM) | relative viability ([3]; first compound 0.2 µM) | relative viability ([3]; first compound 0.6325 µM) | relative viability ([3]; first compound 2 µM) | relative viability ([4]; first compound 0.02 µM) | relative viability ([4]; first compound 0.06325 µM) | relative viability ([4]; first compound 0.2 µM) | relative viability ([4]; first compound 0.6325 µM) | relative viability ([4]; first compound 2 µM)
NCI-H1395 | 1.01 | 0.879 | 1.08 | 1.04 | 1.12 | 0.425 | 0.366 | 0.435 | 0.374 | 0.398 | 0.719 | 0.668 | 0.747 | 0.713 | 0.696 | 0.533 | 0.431 | 0.478 | 0.505 | 0.479
NCI-H1437 | 0.813 | 0.802 | 0.843 | 0.821 | 0.788 | 1.19 | 1.09 | 1.22 | 1.11 | 1.09 | 0.509 | 0.615 | 0.592 | 0.573 | 0.549 | 0.623 | 0.647 | 0.612 | 0.632 | 0.655
NCI-H1651 | 0.914 | 1 | 0.913 | 0.777 | 0.929 | 0.45 | 0.507 | 0.505 | 0.466 | 0.429 | 0.578 | 0.62 | 0.577 | 0.652 | 0.59 | 0.175 | 0.187 | 0.167 | 0.191 | 0.163
NCI-H1666 | 0.657 | 0.627 | 0.667 | 0.596 | 0.69 | 0.876 | 0.859 | 0.882 | 0.855 | 0.812 | 0.714 | 0.718 | 0.734 | 0.835 | 0.8 | 0.755 | 0.777 | 0.756 | 0.731 | 0.77
NCI-H1734 | 1.11 | 1.02 | 1.05 | 1.09 | 0.503 | 0.532 | 0.505 | 0.475 | 0.583 | 0.71 | 0.49 | 0.519 | 0.472 | 0.506 | 0.467 | 0.66 | 0.648 | 0.547 | 0.605 | 0.678
NCI-H1755 | 1.08 | 1.07 | 1.02 | 1.05 | 0.976 | 0.427 | 0.461 | 0.484 | 0.593 | 0.436 | 0.679 | 0.736 | 0.756 | 0.723 | 0.677 | 0.893 | 0.858 | 0.914 | 0.842 | 0.878
NCI-H1792 | 0.852 | 0.892 | 0.952 | 1.06 | 0.855 | 0.559 | 0.761 | 0.676 | 0.796 | 0.559 | 0.539 | 0.6 | 0.468 | 0.502 | 0.505 | 0.582 | 0.41 | 0.404 | 0.614 | 0.548
NCI-H1793 | 0.875 | 0.658 | 0.684 | 0.657 | 0.631 | 0.453 | 0.316 | 0.505 | 0.306 | 0.53 | 0.548 | 0.602 | 0.567 | 0.446 | 0.498 | 0.901 | 0.928 | 0.786 | 0.873 | 1.02
NCI-H1915 | 0.87 | 0.955 | 0.971 | 0.944 | 1.02 | 0.609 | 0.708 | 0.705 | 0.614 | 0.693 | 0.26 | 0.258 | 0.246 | 0.251 | 0.284 | 0.253 | 0.27 | 0.271 | 0.264 | 0.257
NCI-H1944 | 0.84 | 0.809 | 0.893 | 0.7 | 0.818 | 0.564 | 0.788 | 0.531 | 0.523 | 0.475 | 0.388 | 0.374 | 0.455 | 0.454 | 0.434 | 0.416 | 0.422 | 0.447 | 0.387 | 0.426
NCI-H1975 | 0.899 | 0.979 | 0.917 | 0.89 | 0.907 | 0.708 | 0.577 | 0.728 | 0.738 | 0.653 | 0.372 | 0.409 | 0.4 | 0.424 | 0.382 | 0.733 | 0.912 | 0.671 | 0.792 | 0.74
NCI-H1993 | 0.853 | 0.803 | 0.952 | 0.799 | 0.731 | 1.01 | 0.724 | 0.887 | 0.985 | 0.849 | 0.637 | 0.598 | 0.67 | 0.683 | 0.622 | 1.07 | 0.961 | 1.08 | 0.912 | 0.982
NCI-H2085 | 0.834 | 0.785 | 0.723 | 0.894 | 0.818 | 1.07 | 1.13 | 1.04 | 0.998 | 1.04 | 0.606 | 0.532 | 0.592 | 0.573 | 0.558 | 0.731 | 0.828 | 0.723 | 0.762 | 0.758
NCI-H2087 | 0.893 | 0.958 | 1.01 | 1.02 | 1.16 | 1.35 | 1.38 | 1.27 | 1.29 | 1.31 | 0.312 | 0.307 | 0.269 | 0.357 | 0.329 | 0.631 | 0.519 | 0.604 | 0.571 | 0.689
NCI-H2126 | 0.692 | 0.726 | 0.744 | 0.734 | 0.797 | 0.982 | 1.04 | 1.03 | 1.04 | 1 | 0.605 | 0.573 | 0.676 | 0.556 | 0.599 | 0.871 | 0.934 | 0.92 | 0.936 | 0.878
NCI-H2170 | 0.291 | 0.243 | 0.273 | 0.267 | 0.277 | 0.773 | 1.02 | 0.928 | 0.857 | 0.883 | 0.466 | 0.496 | 0.529 | 0.458 | 0.458 | 0.617 | 0.607 | 0.606 | 0.605 | 0.542
